According to EP1769804B1, “hPTH(1-34) for use in preventing or reducing the incidence or severity of vertebral and / or non vertebral fracture in a male human” (priority 1998, dated 2012):
Marks after values point to notes of the source that are not given here.

Test system: Ovariectomized Primates
Experiment: Cortical histomorphometry of the humerus midshaft
Assay type: in vivo, Macaca fascicularis
Details: mean ± SEM
Excerpt: Biomechanical tests were done on lumbar vertebrae L-3 to L-4, the femur neck, humerus midshaft, and on a cortical bone specimen machined from the femur diaphysis (measures defined in Table 2). Conventional static and dynamic histomorphometry were done (measures described in Table 6) on the humerus midshaft, lumbar vertebra L-2, femoral neck, femur midshaft, the radius midshaft and distal radius. Initial statistical analyses compared all groups to vehicle-treated ovariectomized controls. The data is suitable for additional exploratory analyses to examine dose dependency, effects of withdrawal, interactions between outcomes, and changes in time by methods known to those of skill in the art. All assays were conducted and determined by methods known in the art.
For certain experimental subjects, cortical bone of the humerus was examined by histomorphometry and by polarized Fourier transform infrared microscopy. The Fourier transform infrared microscopy was conducted by an adaptation of known methods for such microscopy.

[1] = PTH1-W: withdrawal after 1 µg/kg for 12 months
[2] = PTH5-W: withdrawal after 5 µg/kg for 12 months

Substance: teriparatide [rhPTH(1-34)]
- Po (Porosity, the percentage of bone area occupied by spaces) [1]: 2.23 ± 1.60%
- Rs.N/Ct.A (number of resorption spaces per unit cortical area) [1]: 0.12 ± 0.07^a #/mm^2
- W.Wi (Osteonal wall width) [1]: 63.12 ± 17.35 µm
- omt (Osteoid maturation time) [1]: 3.86 ± 0.74 days
- Ac.F (Activation frequency) (PTH1: 1 µg/kg for 18 months): 7.69 ± 4.96 cycles/year
- B.Ar (Bone area, the total area within the periosteal surface) (PTH1: 1 µg/kg for 18 months): 54.22 ± 5.97 mm^2
- BFR/BS.Ec (bone formation rate, endocortical surface referent) (PTH1: 1 µg/kg for 18 months): 18.14 ± 13.95 µm/day
- BFR/BS.Ps (Bone formation rate, periosteal surface referent) (PTH1: 1 µg/kg for 18 months): 8.53 ± 10.54 µm/day
- BFR/BV (Bone formation rate, bone volume referent) (PTH1: 1 µg/kg for 18 months): 19.23 ± 5.93 %/year
- Ct.Ar (Cortical area) (PTH1: 1 µg/kg for 18 months): 37.61 ± 3.86 mm^2
- FP (Formation period) (PTH1: 1 µg/kg for 18 months): 63.44 ± 10.02 days
- L.On.N/Ct.A (Number of fluorochrome labeled osteons per unit cortical area) (PTH1: 1 µg/kg for 18 months): 1.26 ± 0.71 #/mm^2
- MAR (Mineral apposition rate, intracortical) (PTH1: 1 µg/kg for 18 months): 0.98 ± 0.12^a µm/day
- MAR.Ec (Mineral apposition rate, endocortical surface) (PTH1: 1 µg/kg for 18 months): 0.66 ± 0.15 µm/day
- MAR.Ps (mineral apposition rate, periosteal surface) (PTH1: 1 µg/kg for 18 months): 0.89 ± 0.95 µm/day
- MS/BS.Ec (mineralizing endocortical surface normalized to total endocortical surface) (PTH1: 1 µg/kg for 18 months): 25.19 ± 17.14%
- MS/BS.Ps (Mineralizing periosteal surface normalized to total periosteal surface) (PTH1: 1 µg/kg for 18 months): 8.59 ± 5.73%
- Me.Ar (Medullary cavity area) (PTH1: 1 µg/kg for 18 months): 16.61 ± 3.77 mm^2
- O.Wi (Osteoid width) (PTH1: 1 µg/kg for 18 months): 3.66 ± 0.67 µm
- Po (Porosity, the percentage of bone area occupied by spaces) (PTH1: 1 µg/kg for 18 months): 4.65 ± 4.78%
- Rs.N/Ct.A (number of resorption spaces per unit cortical area) (PTH1: 1 µg/kg for 18 months): 0.28 ± 0.18 #/mm^2
- W.Wi (Osteonal wall width) (PTH1: 1 µg/kg for 18 months): 61.36 ± 7.79 µm
- omt (Osteoid maturation time) (PTH1: 1 µg/kg for 18 months): 3.76 ± 0.70 days
- Ac.F (Activation frequency) [2]: 2.05 ± 1.46^a cycles/year
- B.Ar (Bone area, the total area within the periosteal surface) [2]: 58.16 ± 8.79^a mm^2
- BFR/BS.Ec (bone formation rate, endocortical surface referent) [2]: 12.73 ± 16.33^a µm/day
- BFR/BS.Ps (Bone formation rate, periosteal surface referent) [2]: 5.79 ± 4.05 µm/day
- BFR/BV (Bone formation rate, bone volume referent) [2]: 2.21 ± 1.73^a %/year
- Ct.Ar (Cortical area) [2]: 40.83 ± 5.80^a mm^2
- FP (Formation period) [2]: 88.63 ± 52.90 days
- L.On.N/Ct.A (Number of fluorochrome labeled osteons per unit cortical area) [2]: 0.38 ± 0.26^a #/mm^2
- MAR (Mineral apposition rate, intracortical) [2]: 0.85 ± 0.28^a µm/day
- MAR.Ec (Mineral apposition rate, endocortical surface) [2]: 0.63 ± 0.17 µm/day
- MAR.Ps (mineral apposition rate, periosteal surface) [2]: 0.82 ± 0.15 µm/day
- MS/BS.Ec (mineralizing endocortical surface normalized to total endocortical surface) [2]: 8.93 ± 15.39^a %
- MS/BS.Ps (Mineralizing periosteal surface normalized to total periosteal surface) [2]: 2.30 ±3.76^a %
- Me.Ar (Medullary cavity area) [2]: 17.34 ± 6.05 mm^2
- O.Wi (Osteoid width) [2]: 3.76 ± 0.83 µm
- Po (Porosity, the percentage of bone area occupied by spaces) [2]: 6.40 ± 4.22^a %
- W.Wi (Osteonal wall width) [2]: 63.82 ± 8.31 µm
- omt (Osteoid maturation time) [2]: 5.07 ± 2.65 days
- Ac.F (Activation frequency) (PTH5: 5 µg/kg for 18 months): 8.70 ± 3.97 cycles/year
- B.Ar (Bone area, the total area within the periosteal surface) (PTH5: 5 µg/kg for 18 months): 55.81 ± 6.24 mm^2
- BFR/BS.Ec (bone formation rate, endocortical surface referent) (PTH5: 5 µg/kg for 18 months): 34.04 ± 19.01 µm/day
- BFR/BS.Ps (Bone formation rate, periosteal surface referent) (PTH5: 5 µg/kg for 18 months): 8.99 ± 5.81 µm/day
- BFR/BV (Bone formation rate, bone volume referent) (PTH5: 5 µg/kg for 18 months): 12.93 ± 5.94^a %/year
- Ct.Ar (Cortical area) (PTH5: 5 µg/kg for 18 months): 40.96 ± 4.30^a mm^2
- FP (Formation period) (PTH5: 5 µg/kg for 18 months): 81.97 ± 95.63 days
- L.On.N/Ct.A (Number of fluorochrome labeled osteons per unit cortical area) (PTH5: 5 µg/kg for 18 months): 1.45 ± 0.47^a #/mm^2
- MAR (Mineral apposition rate, intracortical) (PTH5: 5 µg/kg for 18 months): 1.03 ± 0.23 µm/day
- MAR.Ec (Mineral apposition rate, endocortical surface) (PTH5: 5 µg/kg for 18 months): 0.75 ± 0.14 µm/day
- MAR.Ps (mineral apposition rate, periosteal surface) (PTH5: 5 µg/kg for 18 months): 0.66 ± 0.17 µm/day
- MS/BS.Ec (mineralizing endocortical surface normalized to total endocortical surface) (PTH5: 5 µg/kg for 18 months): 40.47 ± 24.68^a %
- MS/BS.Ps (Mineralizing periosteal surface normalized to total periosteal surface) (PTH5: 5 µg/kg for 18 months): 11.00 ± 9.63%
- Me.Ar (Medullary cavity area) (PTH5: 5 µg/kg for 18 months): 14.85 ± 4.72^a mm^2
- O.Wi (Osteoid width) (PTH5: 5 µg/kg for 18 months): 3.94 ± 1.13 µm
- Po (Porosity, the percentage of bone area occupied by spaces) (PTH5: 5 µg/kg for 18 months): 6.78 ± 4.23^a %
- Rs.N/Ct.A (number of resorption spaces per unit cortical area) (PTH5: 5 µg/kg for 18 months): 0.43 ± 0.26^a #/mm^2
- W.Wi (Osteonal wall width) (PTH5: 5 µg/kg for 18 months): 65.29 ± 9.43 µm
- omt (Osteoid maturation time) (PTH5: 5 µg/kg for 18 months): 6.45 ± 13.85 days
